For 29 compounds, activation results are on record in publication PMC13083723 (Patterns, 2026).

In the assay the test system is Vero-E6 cells. Kind of assay: cells. Format: cell-based. The note with it: Chlorocebus sabaeus, Vero C1008, 24 h, read-out: PL_Result.

On to `COc1cc2ncnc(Nc3ccc(Oc4ccccc4)cc3)c2cc1OC` [SPE_K50495309], for which the activation at 10 µM was -8.17%. In the case of `CN(C(=O)c1ccc(F)cc1C(F)(F)F)C1CCN(c2nnc(-c3ccnn3C)c3ccccc23)CC1` [SPE_K50498985] it was -8%; in that of `CC(C)[C@H](CO)Nc1nc(Nc2cccc(Cl)c2)c2ncn(C(C)C)c2n1` [SPE_K50836978], 1.32%.

For the compound `CCCN1CCCC[C@H]1C(=O)Nc1c(C)cccc1C` [SPE_K50938786], the activation at 10 µM came to 0.0286%.

For the compound `COCCN1CCC(C(=O)NO)(S(=O)(=O)c2ccc(Oc3ccc(OC(F)(F)F)cc3)cc2)CC1` [SPE_K51102532], the activation at 10 µM is -13.6%. As for `CNCC(=O)O` [SPE_K51263939], the activation at 10 µM was -0.786%. In the case of `CCCC(CCC)C(=O)NCc1ccc2c(cnn2-c2ccccc2OC)c1` [SPE_K51265828] it was 1.45%; in that of `CC(=O)OCC(=O)[C@H]1CC[C@H]2[C@@H]3CC[C@H]4C[C@H](O)CC[C@]4(C)[C@H]3C(=O)C[C@]12C` [SPE_K51751936], -4.71%.

With `N#Cc1cnc2cnc(NCc3cccnc3)cc2c1Nc1ccc(F)c(Cl)c1` [SPE_K51776215], the activation at 10 µM was 4.19%. The value for `CN1CC[C@@H](c2c(O)cc(O)c3c(=O)cc(-c4ccccc4Cl)oc23)[C@@H]1CO` [SPE_K51791723] was 1.15%; that for `CCOCCn1c(C2CCN(CCc3ccc(C(C)(C)C(=O)O)cc3)CC2)nc2ccccc21` [SPE_K51937257] was -5.44%; that for `COc1c(C)cnc(Cn2cnc3c(Cl)nc(N)nc32)c1C` [SPE_K51967704] was -7.08%. As for `C[C@]12CC[C@H]3[C@@H](CCC4=CC(=O)CC[C@@H]43)[C@@H]1CC[C@@H]2O` [SPE_K52080565], the activation at 10 µM was -3.9%. In the case of `COc1ccc(F)c(F)c1C(=O)c1cnc(NC2CCN(S(C)(=O)=O)CC2)nc1N` [SPE_K52233191], the activation at 10 µM was -6.09%. For `CNC(=O)[C@H]1O[C@@H](n2cnc3c(NCc4cccc(I)c4)nc(Cl)nc32)[C@H](O)[C@@H]1O` [SPE_K52396582], the activation at 10 µM was -2.9%. As to `CC(=O)NNC(=O)N1Cc2ccccc2Oc2ccc(Cl)cc21` [SPE_K52512893], the activation at 10 µM was -10.6%. In the case of `CC(=O)c1ccc(S(=O)(=O)NC(=O)NC2CCCCC2)cc1` [SPE_K52960356] it was 6.72%. In the case of `Nc1nc2[nH]nnc2c(=O)[nH]1` [SPE_K53114651], the activation at 10 µM is -1.39%. With `CCOC(=O)C1=C[C@]2(CC)CCCN3CCc4c(n1c1ccccc41)[C@@H]32` [SPE_K53318339], the activation at 10 µM was -10.5%. For the compound `CCOC(=O)c1cc2ccc(O)cc2oc1=O` [SPE_K53438416], the activation at 10 µM was -0.478%.

As for `OC[C@H]1O[C@@H](c2ccc(Cl)c(Cc3ccc(O[C@H]4CCOC4)cc3)c2)[C@H](O)[C@@H](O)[C@@H]1O` [SPE_K53765467], the activation at 10 µM is -10%. Turning to `CN(CC[C@@H](Oc1ccc(-c2ccccc2)cc1)c1ccc(F)cc1)CC(=O)O` [SPE_K53979406], the activation at 10 µM was -9.75%. With `CC(C)C(N)=O` [SPE_K54057105], the activation at 10 µM is -7.86%. `c1ccc(C2CC2)c(OCC2=NCCN2)c1` [SPE_K54142781]: the activation at 10 µM is -12.4%.

In the case of `Fc1ccc(-c2c3cccc(C(F)(F)F)c3nn2Cc2ccc(F)cc2Cl)cc1` [SPE_K54520417], the activation at 10 µM is -2.25%. As for `Oc1ccc([C@H]2COc3cc(O)ccc3C2)cc1` [SPE_K54847683], the activation at 10 µM was -12.7%. As to `NC(=O)c1cccc2cn(-c3ccc([C@@H]4CCCNC4)cc3)nc12` [SPE_K54955827], the activation at 10 µM was -6.71%. Turning to `Cc1nc(NC(=O)N2CCC[C@H]2C(N)=O)sc1-c1ccnc(C(C)(C)C(F)(F)F)c1` [SPE_K54997624], the activation at 10 µM was 12.6%. Consider `Nc1ncn([C@@H]2O[C@H](CO)[C@@H](O)[C@H]2O)c(=O)n1` [SPE_K55026842], for which the activation at 10 µM is -12.3%.
